Assay results reported in patent US20240252463A1, “METHODS OF TREATING FIBROTIC PATHOLOGIES” (Mayo Foundation for Medical Education and Research, priority 2018, published 2024).

Test system: YAP/TAZ
Test: YAP/TAZ nuclear localization in IMR-90 and other mesenchymal cells (cardiac, dermal fibroblasts, hepatic stellate cells)
Assay type: cell-based, human
Description: FIGS. 2A-2E Dopamine Receptor D1 agonism blocks YAP/TAZ nuclear localization. 2a. Selective agonists of dopamine receptor D1 with varying efficacy inhibit YAP/TAZ nuclear localization; this effect can be overcome by treatment with a DRD1 receptor antagonist (SCH 39166, 3 μM), (Dihydrexidine, 10 μM). IMR-90 cells treated 2 hours prior to fixation. N=4 (****p<0.0001 vs. 0.1% DMSO vehicle control). Scale bar represents 100 μm. 2b. Consistent with DRD1 expression, DHX inhibits YAP/TAZ only in fibroblasts (IPF-FBs) but not in epithelial (NHEpCs) or endothelial (NHMVECs) cells. N=4 (****p<0.0001 vs. 0.1% DMSO vehicle control) 2c. YAP/TAZ localization is induced through multiple ligands which stimulate receptors coupled to Galphαi/q/12, endothelin 1 (ET-1: 100 nM), lysophosphatidic acid (LPA: 10 μM), and serotonin (5-HT: 1 μM). In each case DHX treatment (10 μM) can reverse this effect on YAP/TAZ. IMR-90 cells plated densely onto plastic cell culture plates for 24 hours in media containing 0.1% FBS, treated for 2 hours prior to fixation. N=4 (****p<0.0001 vs. 0.1% DMSO vehicle control), (++++p<0.0001 vs. the respective stimulated agonist ET-1, LPA, or 5-HT). Scale bar represents 100 μm. 2d. cAMP measured in IPF patient-derived fibroblasts treated for 20 minutes with DHX (10 μM)+/−SCH 39166 (3 μM). N=3 (**p<0.01 vs. 0.1% DMSO vehicle control). 2e. Phosphorylation of YAP by Rho-kinase inhibitor Y27632 (20 μM), direct cAMP stimulator Forskolin (10 μM), or DHX (10 μM). IMR-90 cells cultured for 24 hours in media containing 0.1% FBS, treated 2 hours prior to fixation. N=3 (***p<0.001 vs. 0.1% DMSO vehicle control).
FIGS. 6A-6C DHX inhibits YAP/TAZ localization in fibroblasts from multiple tissues. 6a. Mesenchymal cells derived from lung (IMR-90 and IPF-FBs) hepatic stellate cells (HSC), human adult cardiac fibroblasts, (HACF) and human dermal fibroblasts (HDF) were plated densely (Confluent) or sparsely (Control and all remaining conditions) onto plastic cell culture plates for 24 hours in media containing 0.1% FBS, treated for 2 hours with Rho kinase inhibitor Y27632, adenylate cyclase activator forskolin and DHX. N=4, Cells that were positive for nuclear YAP/TAZ were quantified by automated image analysis. 6b. Time course for DHX inhibition of YAP/TAZ nuclear localization. IMR-90 cells, N=3 (***p<0.001 vs. 0.1% DMSO vehicle control). 6c. […] N=3.
ImmunofluorescenceMicroscopy: Cells were plated into 96 well plates (Corning 3603) in their specific growth media and allowed to attach (8 hours). Media was then exchanged for the indicated conditions for each experiment. Cells were fixed in 3.7% formalin (Sigma-Aldrich), permeabilized in 0.25% Triton X-100 (Sigma-Aldrich) and then blocked with 1% BSA for 1 h. Cells or tissue sections were incubated overnight with mouse monoclonal antibody against αSMA (Sigma-Aldrich F3777), and/or a rabbit monoclonal antibody against YAP/TAZ (Cell Signaling D24E4) diluted 1:200 in PBS with 1% BSA. Cells were then washed and exposed to flourescence-conjugated secondary antibodies (Invitrogen) diluted 1:1000 and DAPI (Thermo Fisher Scientific). Images were taken with a Cytation5 (BioTek) microscope. For scoring αSMA positive cells (FIG. 3b), an observer blinded to the treatment conditions counted αSMA-positive cells using a visual threshold for bright fibrous staining; a minimum of 200 cells was counted for each condition. YAP/TAZ localization was quantified (FIG. 2, 6, 8) using Gen5 (Biotek) software. Images were taken at 4× magnification of both DAPI and YAP/TAZ staining. […] Quantification of double positive (YAP/TAZ and αSMA) cells from lung tissue sections (FIG. 4d) was performed similarly; however separate thresholds were established for both YAP/TAZ and αSMA. A minimum of 4000 cells was quantified for each mouse.

## Oc1cc2c(cc1O)[C@H]1c3ccccc3CN[C@@H]1CC2 (racemic) [Dihydrexidine, dihydrexidine]
FIG. 6c
  potency of inhibition of YAP/TAZ nuclear localization, normal lung fibroblasts vs IPF-derived: equally potent
Cardiac and dermal fibroblasts and hepatic stellate cells (FIG. 6)
  YAP/TAZ nuclear localization across a panel of mesenchymal cell types: effective at inhibiting YAP/TAZ nuclear localization
Confluent IMR-90, DHX 10 μM, 2 hours (FIG. 2c)
  YAP/TAZ nuclear localization induced by endothelin-1, lysophosphatidic acid and serotonin: blocked nuclear localization of YAP/TAZ
Fibroblasts on stiff matrix (plastic), IMR-90 cells treated 2 hours (FIG. 2a)
  YAP/TAZ nuclear localization: reduced nuclear localization of YAP/TAZ
